This series in a line: Stability of tapentadol valine carbamate in simulated gastric and intestinal fluids, water and pH 10 buffer. In kind it is physicochemical.

In the case of `CC[C@H](c1cccc(OC(=O)N[C@H](C(=O)O)C(C)C)c1)[C@H](C)CN(C)C` (racemic) [Tapentadol valine carbamate, 2-[3-(3-Dimethylamino-1-ethyl-2-methyl-propyl)-phenoxycarbonylamino]-3-methyl-butyric acid], for the setting “USP simulated gastric fluid pH 1.1, 2 h, 37° C., HPLC”, the “Simulated gastric fluid (pH 1.1): % remaining after 2 h/37° C.” value was 100%. Under “USP simulated intestinal fluid pH 6.8, 2 h, 37° C., HPLC”, the “Simulated intestinal fluid (pH 6.8): % remaining after 2 h/37° C.” value is 100%. In addition, the “Distilled water (pH 5.9): % remaining after 2 h/20° C.” value (distilled water pH 5.9, 2 h, 20° C.) is 100%. For the same molecule, the “pH 10.0 buffer: % remaining after 2 h/20° C.” value (pH 10.0 buffer, 2 h, 20° C.) is 82%. In addition, the “stability under the conditions existing in the GI tract” value (summary in words of Table 2) is listed as “stable”.

Values taken from US20100227921A1, “AMINO ACID AND PEPTIDE CARBAMATE PRODRUGS OF […] USES THEREOF” (SHIRE LLC, priority 2009, published 2010).
